Consider three compounds from patent publication US20230348400A1, “ORGANIC COMPOUND, LIGHT-EMITTING DEVICE, AND LIGHT-EMITTING APPARATUS” (SEMICONDUCTOR ENERGY LABORATORY CO., LTD., priority 2022, published 2023).

Molecules are shown by their SMILES. ≈ marks a conversion by molar mass, not a printed value.

The nature of the data set: Solubility test in water (stepwise addition of water, ultrasonic waves, visual observation of precipitate). The format is physicochemical. The following applies: for solubility at 1 min: from solid; for solubility in water as a fraction of the solubility of 2,7hpp2SF in water: one atmosphere, RT, relative to comparative 2,7hpp2SF. As to the method:
In this example, the solubility of the organic compounds that can be used in the display apparatus of one embodiment of the present invention is described. Note that the solubility test was conducted at a pressure of one atmosphere at room temperature (RT).
The mixture was irradiated with ultrasonic waves for 1 minute. The mixture was visually observed, and a white powdered precipitate was observed. This means part of 2′,7′tBu-2,7hpp2SF remained undissolved. […] This process was repeated until the white powdered precipitate was not visually observed any more. Thus, the solubility was examined.
The mixture was irradiated with ultrasonic waves for 1 minute. Whether part of the mixture remained undissolved was visually confirmed, and a white powdered precipitate was observed. […] This process was repeated.
The mixture was irradiated with ultrasonic waves for 1 minute. The mixture was observed, and a white powdered precipitate was observed. This means part of 2,7hpp2SF remained undissolved. […] This process was repeated until the white powdered precipitate was not visually observed any more. Thus, the solubility was examined.

For `c1ccc2c(c1)-c1ccccc1C21c2cc(N3CCCN4CCCN=C43)ccc2-c2ccc(N3CCCN4CCCN=C43)cc21` [2,7hpp2SF, 1,1′-(9,9′-spirobi[9H-fluorene]-2,7-diyl)bis(1,3,4,6,7,8-hexahydro-2H-pyrimido[1,2-a]pyrimidine), reference compound], the solubility at 1 min lay within 330 to 390 µg/mL (≈ 559 to 660 µM).
On to `CC(C)(C)c1ccc2c(c1)C1(c3cc(N4CCCN5CCCN=C54)ccc3-c3ccc(N4CCCN5CCCN=C54)cc31)c1cc(C(C)(C)C)ccc1-2` [Structural Formula (100), 1,1′-(2′,7′-di-tert-butyl-9,9′-spirobi[9H-fluorene]-2,7-diyl)bis(1,3,4,6,7,8-hexahydro-2H-pyrimido[1,2-a]pyrimidine)], for which the solubility at 1 min was 58 to 61 µg/mL and the “solubility in water as a fraction of the solubility of 2,7hpp2SF in water” value was “less than or equal to ⅕”.
With `CC(C)(C)c1ccc2c(c1)C1(c3ccccc3-c3ccc(N4CCCN5CCCN=C54)cc31)c1cc(C(C)(C)C)ccc1-2` [Structural Formula (101), 1-(2′,7′-di-tert-butyl-9,9′-spirobi[9H-fluoren]-2-yl)-1,3,4,6,7,8-hexahydro-2H-pyrimido[1,2-a]pyrimidine], the solubility at 1 min was < 2.3 µg/mL and the “solubility in water as a fraction of the solubility of 2,7hpp2SF in water” value was “less than or equal to 1/140”. Further, the “weight that is dissolved in 1.0 mL of water” value (pressure of one atmosphere, room temperature (RT)) is “less than 0.0023 mg”.
